# Read-outs that look alike come from different tables or passages of the source.
# Columns and labels:
# [1] = system: Colletotrichum lagenarium; experiment: Action against Colletotrichum lagenarium on Cucumis sativus L./soil application; format: in vivo
# [2] = system: Colletotrichum lagenarium; experiment: Action against Colletotrichum lagenarium on Cucumis sativus L./foliar application; format: in vivo
# Erysiphe graminis = experiment: Action against Erysiphe graminis on barley
# Method: A1: Action gainst Erysiphe graminis on Barley
# a) Residual-protective Action Barley plants about 8 cm in height are sprayed to drip point with an aqueous spray mixture (max. 0.02% active ingredient) and are dusted 3 to 4 days later with conidia of the fungus. The infected plants are stood in a greenhouse at 22°. Fungus infestation is generally evaluated 10 days after infection.
# b) Systemic Action Barley plants about 8 cm in height are watered with an aqueous spray mixture (max. 0.002% active ingredient, based on the volume of the soil). […] The plants are dusted with conidia of the fungus 3 to 4 days later. The infected plants are stood in a greenhouse at 22°. Fungus infestation is generally evaluated 10 days after infection.
# Pyricularia oryzae = format: in vivo; conditions: Example B11
# [3] = system: Cercospora sp. (leaf spot); experiment: Field test on chilli: action against Cercospora sp. (leaf spot)
# From the text: In a plot of land about 10 m^2 (test location: Cikampek, Java, Indonesia), chilli plants are sprayed a total of 7 times at intervals of about 7 days with 500-700 litres of spray mixture per hectare. Three days after the first spraying, the plants are infected artificially with the fungus.
# Evaluation is made by assessing infestation on the leaves after the sixth spraying.
# [4] = Field test on chilli: action on crop yield; format: in vivo; conditions: Example B10, chillis harvested after the sixth spraying
# Cercospora nicotianae = experiment: Action against Cercospora nicotianae on tobacco plants; format: in vivo
# [5] = Example B3(b), 0.2 mg a.i. per liter (ppm)
# [6] = Example B3(a), 0.06 mg a.i. per liter (ppm)
# [7] = Example B3(a), 0.2 mg a.i. per liter (ppm)
# [8] = Example B1, 0.6 mg a.i. per liter (ppm)
# [9] = Example B1, 2 mg a.i. per liter (ppm)
# [10] = Example B1, 6 mg a.i. per liter (ppm)
# [11] = Example B9(b), 0.02 mg a.i. per liter (ppm)
# [12] = Example B9(b), 0.06 mg a.i. per liter (ppm)
# [13] = Example B5, 2 mg a.i. per liter (ppm)
# [14] = Example B5, 6 mg a.i. per liter (ppm)
# [15] = Example B7, 2 mg a.i. per liter (ppm)
# [16] = Example B7, 6 mg a.i. per liter (ppm)
# [17] = Example B9(a), 6 mg a.i. per liter (ppm)
compound,measurement,setting,value
"O=C(O)c1cccc2nnsc12 [compound IA, benzothiadiazole-7-carboxylic acid]",% action O (found),"[1]; Example B3(b), 0.006 mg a.i. per liter (ppm)",0%
same,% action O (found),"[1]; Example B3(b), 0.02 mg a.i. per liter (ppm)",40%
same,% action O (found),"[1]; Example B3(b), 0.06 mg a.i. per liter (ppm)",49%
same,% action O (found),[1]; [5],91%
same,% action O (found),[2]; [6],0%
same,% action O (found),[2]; [7],5%
same,% action O (found),"[2]; Example B3(a), 2 mg a.i. per liter (ppm)",22%
same,% action O (found),"[2]; Example B4, 0.2 mg a.i. per liter (ppm)",3%
same,% action O (found),"[2]; Example B4, 0.6 mg a.i. per liter (ppm)",51%
same,% action O (found),Erysiphe graminis; [8],0%
same,% action O (found),Erysiphe graminis; [9],40%
same,% action O (found),Erysiphe graminis; [10],89%
same,% action O (found),"Erysiphe graminis; Example B2, 0.6 mg a.i. per liter (ppm)",14%
same,% action O (found),"Erysiphe graminis; Example B2, 2 mg a.i. per liter (ppm)",27%
"CSC(=O)c1cccc2nnsc12 [compound ID, benzothiadiazole-7-carboxylic acid thiomethyl ester]",% action O (found),"[1]; Example B9(b), 0.006 mg a.i. per liter (ppm)",0%
same,% action O (found),[1]; [11],6%
same,% action O (found),[1]; [12],23%
same,% action O (found),"[1]; Example B9(b), 0.2 mg a.i. per liter (ppm)",36%
same,% action O (found),Pyricularia oryzae; 6 mg a.i. per liter (ppm),15%
same,% action O (found),"[3]; Example B10, 5 mg a.i. per liter (ppm)",76%
same,"Action on crop yield, % action O (found)",[4]; 5 mg a.i. per liter (ppm),459%
same,% action O (found),"Cercospora nicotianae; Example B5, 0.2 mg a.i. per liter (ppm)",0%
same,% action O (found),Cercospora nicotianae; [13],17%
same,% action O (found),Cercospora nicotianae; [14],55%
same,% action O (found),"Cercospora nicotianae; Example B5, 20 mg a.i. per liter (ppm)",78%
same,% action O (found),"Cercospora nicotianae; Example B7, 0.2 mg a.i. per liter (ppm)",0%
same,% action O (found),Cercospora nicotianae; [15],17%
same,% action O (found),Cercospora nicotianae; [16],55%
same,% action O (found),"Cercospora nicotianae; Example B7, 20 mg a.i. per liter (ppm)",78%
same,% action O (found),"[2]; Example B9(a), 0.06 mg a.i. per liter (ppm)",16%
same,% action O (found),"[2]; Example B9(a), 0.2 mg a.i. per liter (ppm)",22%
same,% action O (found),[2]; [17],60%
same,% action O (found),"Erysiphe graminis; Example B8, 0.6 mg a.i. per liter (ppm)",0%
same,% action O (found),"Erysiphe graminis; Example B8, 2 mg a.i. per liter (ppm)",33%
"CC(C)(C)C(O)(CCc1ccc(Cl)cc1)Cn1cncn1 (stereo not drawn) [compound IIA, α-[2-(4-chlorophenyl)ethyl]-α-(1,1-dimethylethyl)-1H-1,2,4-trazole-1-ethanol]",% action O (found),Cercospora nicotianae; [13],0%
same,% action O (found),Cercospora nicotianae; [14],0%
"CC(C1CC1)C(O)(Cn1cncn1)c1ccc(Cl)cc1 (stereo not drawn) [compound IIC, α-(4-chlorophenyl)-α-(1-cyclopropylethyl)-1H-1,2,4-triazole-1-ethanol]",% action O (found),Cercospora nicotianae; [15],0%
same,% action O (found),Cercospora nicotianae; [16],0%
same,% action O (found),"Erysiphe graminis; Example B8, 6 mg a.i. per liter (ppm)",17%
same,% action O (found),"Erysiphe graminis; Example B8, 20 mg a.i. per liter (ppm)",33%
same,% action O (found),"Erysiphe graminis; Example B8, 60 mg a.i. per liter (ppm)",50%
"CC1(C)CCC(Cc2ccc(Cl)cc2)C1(O)Cn1cncn1 (stereo not shown) [compound IID, 5-(4-chlorobenzyl)-2,2-dimethyl-1-(1H-1,2,4-triazol-1-ylmethyl)-cyclopentanol]",% action O (found),Erysiphe graminis; [8],10%
same,% action O (found),Erysiphe graminis; [9],40%
same,% action O (found),Erysiphe graminis; [10],51%
same,% action O (found),"Erysiphe graminis; Example B1, 20 mg a.i. per liter (ppm)",65%
"CO/C=C(/C(=O)OC)c1ccccc1Oc1cc(Oc2ccccc2C#N)ncn1 [compound IIF, methyl-(E)-2-{2-[6-(2-cyanophenoxy)pyrimidin4-yloxy]phenyl}-3-methoxyacrylate]",% action O (found),[1]; [5],0%
same,% action O (found),"[1]; Example B3(b), 0.6 mg a.i. per liter (ppm)",9%
same,% action O (found),"[1]; Example B3(b), 2 mg a.i. per liter (ppm)",28%
same,% action O (found),"[1]; Example B3(b), 6 mg a.i. per liter (ppm)",66%
same,% action O (found),[1]; [11],1%
same,% action O (found),[1]; [12],5%
same,% action O (found),"[1]; Example B9(b), 0.6 mg a.i. per liter (ppm)",27%
same,% action O (found),"[1]; Example B9(b), 2 mg a.i. per liter (ppm)",61%
same,% action O (found),"[1]; Example B9(b), 6 mg a.i. per liter (ppm)",93%
same,% action O (found),[2]; [6],5%
same,% action O (found),[2]; [7],9%
same,% action O (found),"[2]; Example B3(a), 0.6 mg a.i. per liter (ppm)",12%
same,% action O (found),"[2]; Example B3(a), 6 mg a.i. per liter (ppm)",17%
same,% action O (found),"[2]; Example B9(a), 2 mg a.i. per liter (ppm)",18%
same,% action O (found),[2]; [17],75%
"CO/N=C(/C(=O)OC)c1ccccc1COc1ccccc1C [compound IIG, methyl-(E)-2-methoximino-2-[α-(o-tolyloxy)-o-tolyl]acetate]",% action O (found),"[2]; Example B4, 2 mg a.i. per liter (ppm)",0%
same,% action O (found),"[2]; Example B4, 20 mg a.i. per liter (ppm)",41%
"CCC1(C(=O)NC(C)c2ccc(Cl)cc2)C(C)C1(Cl)Cl [compound IIK, (1R,3S/1S,3R)-2,2-dichloro-N-[(R)-1-(4-chlorophenyl)ethyl]-1-ethyl-3-methylcyclo-propanecarboxamide]",% action O (found),Pyricularia oryzae; 0.02 mg a.i. per liter (ppm),0%
same,% action O (found),Pyricularia oryzae; 0.06 mg a.i. per liter (ppm),28%
same,% action O (found),Pyricularia oryzae; 0.2 mg a.i. per liter (ppm),47%
same,% action O (found),Pyricularia oryzae; 0.6 mg a.i. per liter (ppm),79%
same,% action O (found),Pyricularia oryzae; 2 mg a.i. per liter (ppm),83%
same,% action O (found),Pyricularia oryzae; 6 mg a.i. per liter (ppm),91%
manganese ethylenebis (dithiocarbamate) polymer-zinc complex [compound IIL],% action O (found),"[3]; Example B10, 100 mg a.i. per liter (ppm)",8%
same,"Action on crop yield, % action O (found)",[4]; 100 mg a.i. per liter (ppm),8%

# Reference: patent publication US6335355B1, “Crop protection products” (Syngenta Investment Corporation, priority 1995, dated 2002)
